Experimental data: patent US9023763B2, “Modification of trehalose-6-phosphate levels in plants” (Isis Innovation Limited, priority 2011, dated 2015)
Like-named read-outs stand apart in the source and are kept apart here.

Legend:
[1] = In vitro deprotection under UV light and sunlight, followed by mass spectrometry/TLC and P NMR; format: physicochemical; conditions: for deprotection time: 5 mM in phosphate buffer pH 7.4
Source text: Two experimental techniques were chosen for studying the progress of deprotection experiments i.e. i) Mass spectroscopy and TLC (spot), and ii) P NMR. Progress of the reactions was monitored by looking for the disappearance of peak corresponding to protected compounds and appearance of peak corresponding to T6P. The structure of completely uncaged compound i.e. T6P was established by 1D and 2D NMR.
Both experimental techniques were very efficient and reproducible to analyse the deprotection experiments. Five millimolar solutions of Examples 1 to 4 were prepared in phosphate buffer (pH 7.4) and the resulting solution was exposed to different wavelengths of UV light and sunlight to monitor deprotection at different time intervals.
After successful synthesis of protected-G6P(1-OMe) compounds their deprotection was carried out under various wavelength and power of UV light.

[2] = In-planta uptake after feeding to roots of seedlings, quantified by HPLC/LCMS; format: in vivo, Arabidopsis thaliana; conditions: for Uptake %: proportion of compound fed taken up by the plant, 72 h; for Uptake % / uptake in μg/10 mg of seedling / concentration at 72 h: Arabidopsis seedling; for uptake in μg/10 mg of seedling / concentration at 72 h: protected T6P compounds, after 72 h (3 days), n = 3; for concentration at 72 h: read-out: uptake in μg/10 mg of seedling; for in-planta uptake (in words): after 72 h
Method: Aqueous solutions of each of Examples 1 to 4 were fed to roots of seedlings of Arabidopsis thaliana and after a certain period of time the aerial (shoot) part of seedling was harvested carefully and extracted in H2O:MeOH (1:1) under liquid nitrogen to get crude fresh plant extract. The crude fresh plant extract thus obtained was analysed by mass spec and using HPLC to quantify the amount of compound taken up.
An aqueous solution of NB-T6P (Example 1) was fed to the seedlings, at 1 mM final concentration, near to the root and uptake was monitored in freshly prepared extract after 24 h, 48 h and 72 h using both HPLC and mass technique.
The quantitative analysis of the compounds taken up into the plant was carried out using freshly prepared plant extract by LCMS and summarised data are given in Table 2.

Arabidopsis thaliana = assay: Increased starch production in treated plants; format: in vivo; conditions: 0.1 mM in the media
Method: Pre-stratified Arabidopsis thaliana seeds were sown in sterile culture on 0.5 mL solid medium (0.5× Murashige and Skoog with Gamborg's vitamins, 0.5% agar) in 0.5 mL tubes pierced with a small hole in the bottom. Tubes were arrayed in polystyrene racks and floated in liquid medium without added sucrose in Phytatrays. Seedlings were grown under 12 hr days under fluorescent lights giving 250 μmo/m^2/s, and 23° C. day/18° C. night temperatures. At 16-20 days after sowing the liquid medium was removed and the tubes were sealed with electrician's tape. All plants were topped up with 0.5×MS medium with no sucrose. Plants were treated with compound example 3, or water by adding example 3 to a final concentration of 0.1 mM in the media. On the third day plants were subjected to growth lights supplemented with UV light (8 W UV bulb) from a Gelman transilluminator (Model 51438) at a distance of 6 cm for 8 h. Plants were allowed to recover for a further day and the aerial parts were harvested at the end of the day, weighed and frozen in liquid nitrogen. Starch was extracted according to published methods, converted to glucose and measured as nmol glucose/gram fresh weight (Nature Protocol 2006, 1, 1342). Results are depicted in FIG. 6.

SnRK1 = SnRK1 assay (Plant Physiol. 2009, 149, 1860-1871); format: biochemical
Method: The compounds synthesised in Examples 1 to 4 were tested against the known target for T6P in vitro i.e. SnRK1, using the assay described in Plant Physiol. 2009, 149, 1860-1871.
T6P deprotected by treatment of NB-T6P (Example 1) under deprotection conditions of 125 W/365 nm radiation was included in SnRK1 assays (carried out in accordance with Plant Physiol. 2009, 149, 1860-1871) to determine its inhibition effect and compared to commercially available T6P from Sigma. The results are depicted in FIG. 3.

[3] = Arabidopsis thaliana, in vivo, 1 mM

deprotection time of caged G6P(1-OMe) ([1]; 8 W/254 nm) | deprotection time of caged G6P(1-OMe) ([1]; 8 W/365 nm) | deprotection time of caged G6P(1-OMe) ([1]; 125 W/200-400 nm) | deprotection time of caged G6P(1-OMe) ([1]; 125 W/365 nm) | deprotection time of caged G6P(1-OMe) ([1]; Sun light) | SMILES | deprotection time ([1]; 8 W/254 nm) | deprotection time ([1]; 8 W/365 nm) | deprotection time ([1]; 125 W/200-400 nm) | deprotection time ([1]; 125 W/365 nm) | deprotection time ([1]; Sun light) | Uptake % [2] | in-planta uptake (in words) [2] | other results
2 h | 2 h | 0.75 h | 1.25 h | 10 h | COC1OC(COP(=O)(OC(C)c2ccccc2[N+](=O)[O-])OC(C)c2ccccc2[N+](=O)[O-])C(O)C(O)C1O (mixture of isomers) [NPE-G6P(1-OMe)] |  |  |  |  |  |  |  | 
10 h | 10 h | 2 h | 2 h | 10 h | COc1cc(COP(=O)(OCc2cc(OC)c(OC)cc2[N+](=O)[O-])OC[C@H]2O[C@H](OC)[C@H](O)[C@@H](O)[C@@H]2O)c([N+](=O)[O-])cc1OC [DMNB-G6P(1-OMe)] |  |  |  |  |  |  |  | 
 |  |  |  |  | O=[N+]([O-])c1ccccc1COP(=O)(OCc1ccccc1[N+](=O)[O-])OCC1O[C@H](O[C@H]2OC(CO)[C@@H](O)C(O)C2O)C(O)C(O)[C@@H]1O (some centres unmarked) [Example 1, NB-T6P] | 240 min | 360 min | 15 min | 30 min | 360 min | 14% |  | concentration at 24 h ([2]; Arabidopsis thaliana, in vivo, 1 mM final concentration fed near the root, 24 h): 263000 ng/g; concentration at 48 h ([2]; Arabidopsis thaliana, in vivo, 1 mM final concentration fed near the root, 48 h): 605000 ng/g; uptake in μg/10 mg of seedling [2]: 26.39 μg/10 mg of seedling
 |  |  |  |  | COc1cc(COP(=O)(OCc2cc(OC)c(OC)cc2[N+](=O)[O-])OCC2O[C@H](O[C@H]3OC(CO)[C@@H](O)C(O)C3O)C(O)C(O)[C@@H]2O)c([N+](=O)[O-])cc1OC (some centres unmarked) [Example 2, DMNB-T6P] | 600 min | 600 min | 60 min | 60 min | 480 min | 1% | taken up by the plant | concentration at 72 h [2, 3]: 318000 ng/g; concentration at 72 h ([2]; Arabidopsis thaliana, in vivo): 318000 ng/g
 |  |  |  |  | CC(OP(=O)(OCC1O[C@H](O[C@H]2OC(CO)[C@@H](O)C(O)C2O)C(O)C(O)[C@@H]1O)OC(C)c1ccccc1[N+](=O)[O-])c1ccccc1[N+](=O)[O-] (some centres unmarked) [Example 3, NPE-T6P] | 90 min | 90 min | 10 min | 20 min | 90 min | 18% | taken up by the plant | uptake in μg/10 mg of seedling [2]: 66.0 μg/10 mg of seedling; increase in amount of starch produced relative to concentration of T6P released in-planta (Arabidopsis thaliana; 8 W UV for 8 h): tenfold higher; starch levels compared to plants treated with water only (Arabidopsis thaliana; growth lights plus 8 W UV bulb for 8 h on third day, harvested a day later, FIG. 6): significantly higher starch levels
 |  |  |  |  | COc1cc(COP(=O)(O)OCC2O[C@H](O[C@H]3OC(CO)[C@@H](O)C(O)C3O)C(O)C(O)[C@@H]2O)c([N+](=O)[O-])cc1OC (some centres unmarked) [Example 4, Mono-DMNB-T6P] | 600 min | 360 min | 45 min | 45 min | 360 min | 1% | taken up by the plant | concentration at 72 h [2, 3]: 360000 ng/g; concentration at 72 h ([2]; Arabidopsis thaliana, in vivo): 360000 ng/g
 |  |  |  |  | O=P(O)(O)OC[C@H]1O[C@H](O[C@H]2O[C@H](CO)[C@@H](O)[C@H](O)[C@H]2O)[C@H](O)[C@@H](O)[C@@H]1O [Example T6P, trehalose-6-phosphate] |  |  |  |  |  |  |  | SnRK1 inhibition (SnRK1; T6P obtained from deprotection of Example 1 (125 W/365 nm), 0.32 mM, FIG. 3): inhibits SnRK1 in the same way as commercially available T6P; SnRK1 inhibition (SnRK1; in vitro, in duplicate, FIG. 1): shows typical inhibition
10 h | 10 h | 1.25 h | 1.25 h | 8 h | COc1cc(COP(=O)(O)OC[C@H]2O[C@H](OC)[C@H](O)[C@@H](O)[C@@H]2O)c([N+](=O)[O-])cc1OC [Mono-DMNB-G6P(1-OMe)] |  |  |  |  |  |  |  | 
6 h | 8 h | 0.75 h | 1.25 h | 8 h | CO[C@H]1O[C@H](COP(=O)(OCc2ccccc2[N+](=O)[O-])OCc2ccccc2[N+](=O)[O-])[C@@H](O)[C@H](O)[C@H]1O [NB-G6P(1-OMe)] |  |  |  |  |  |  |  | 
